Laboratory results from PubChem BioAssay (NCI).
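Protocol summary: plate cells (96-well), add compound at 5 concentrations, incubate 48 h, interpolate endpoints linearly. GI50 marks 50% less growth. At the TGI there is no net growth.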

What was measured:
Experiment in all cases: NCI tumour cell line growth inhibition, 48 h
DLD-1 colon = system: DLD-1 colon
DMS 114 small cell lung = system: DMS 114 small cell lung
DMS 273 small cell lung = system: DMS 273 small cell lung
HOP-18 NSCLC = system: HOP-18 NSCLC
KM20L2 colon = system: KM20L2 colon
SNB-78 CNS = system: SNB-78 CNS
MDA-N = system: MDA-N
RXF-631 renal = system: RXF-631 renal
XF 498 CNS = system: XF 498 CNS
P388/ADR leukemia = system: P388/ADR leukemia
SN12K1 renal = system: SN12K1 renal

## O=C(/C=C\c1cccc2ccccc12)c1ccc(F)cc1
DLD-1 colon
  TGI: 37.6 µM
DMS 114 small cell lung
  TGI: 29.5 µM
DMS 273 small cell lung
  TGI: 29.4 µM
HOP-18 NSCLC
  TGI: 28.2 µM
KM20L2 colon
  TGI: 31.1 µM
SNB-78 CNS
  TGI: 38.5 µM

## CC(C)N1CCN(c2ccncc2S(=O)(=O)N2CCCCC2)CC1
MDA-N
  TGI: > 100 µM

## CCOC(=O)C1SC(=Nc2ccc(OC)c(OC)c2)N=C1C (stereo not drawn)
DLD-1 colon
  TGI: > 100 µM
DMS 114 small cell lung
  TGI: 80.5 µM
DMS 273 small cell lung
  TGI: > 100 µM
HOP-18 NSCLC
  TGI: > 100 µM
KM20L2 colon
  TGI: 76.3 µM
RXF-631 renal
  TGI: > 100 µM
SNB-78 CNS
  TGI: > 100 µM
XF 498 CNS
  TGI: 68.8 µM

## N#CC(/C(CCC(=O)Nc1ccc(Cl)cc1)=N/NC(=O)c1cc2ccccc2cc1O)c1ccccc1 (stereo not drawn)
DLD-1 colon
  TGI: > 100 µM
DMS 114 small cell lung
  TGI: 87.7 µM
HOP-18 NSCLC
  TGI: 89.8 µM
KM20L2 colon
  TGI: > 100 µM
SNB-78 CNS
  TGI: > 100 µM
XF 498 CNS
  TGI: > 100 µM

## N.N.N.N.N.NC(=O)[O-].[Co+3].[I-]
DLD-1 colon
  GI50: > 100 µM
  TGI: > 100 µM
DMS 273 small cell lung
  GI50: > 100 µM
  TGI: > 100 µM
KM20L2 colon
  GI50: > 100 µM
  TGI: > 100 µM
SNB-78 CNS
  GI50: > 100 µM
  TGI: > 100 µM

## CC(C)N(O)C(=N)c1ccccc1
DLD-1 colon
  TGI: > 100 µM
DMS 114 small cell lung
  TGI: > 100 µM
HOP-18 NSCLC
  TGI: 0.849 µM
KM20L2 colon
  TGI: > 100 µM
SNB-78 CNS
  TGI: > 100 µM

## COc1cc(OC)c(C(=O)c2cccs2)cc1N
DLD-1 colon
  TGI: > 100 µM
DMS 114 small cell lung
  TGI: > 100 µM
DMS 273 small cell lung
  TGI: > 100 µM
HOP-18 NSCLC
  TGI: 86.8 µM
KM20L2 colon
  TGI: > 100 µM
RXF-631 renal
  TGI: > 100 µM
SNB-78 CNS
  TGI: > 100 µM
XF 498 CNS
  TGI: > 100 µM

## CC(CC(=O)N1C(=O)C(C)(C)[C@@H](O)[C@H]1CC(C)C(Cl)(Cl)Cl)C(Cl)(Cl)Cl (stereo partly drawn)
DLD-1 colon
  TGI: > 100 µM
DMS 114 small cell lung
  TGI: > 100 µM
DMS 273 small cell lung
  TGI: > 100 µM
HOP-18 NSCLC
  TGI: > 100 µM
KM20L2 colon
  TGI: > 100 µM
SNB-78 CNS
  TGI: > 100 µM
XF 498 CNS
  TGI: > 100 µM

## CO[C@H]1C=CO[C@@]2(C)Oc3c(C)c(O)c4c(O)c(c(CN5CCN(C)CC5)c(O)c4c3C2=O)NC(=O)/C(C)=C\C=C[C@H](C)[C@H](O)C(C)[C@@H](O)C(C)[C@H](OC(C)=O)[C@@H]1C (stereo partly drawn)
MDA-N
  TGI: > 100 µM

## Cc1c2ccn(O)cc2c(C)c2c1nc1ccccc12
DLD-1 colon
  TGI: > 100 µM
DMS 114 small cell lung
  TGI: 47.1 µM
DMS 273 small cell lung
  TGI: 31.1 µM
HOP-18 NSCLC
  TGI: 99.4 µM
KM20L2 colon
  TGI: > 100 µM
MDA-N
  TGI: > 100 µM
P388/ADR leukemia
  TGI: > 42.2 µM
RXF-631 renal
  TGI: > 100 µM
SN12K1 renal
  TGI: 27.3 µM
SNB-78 CNS
  TGI: > 69.6 µM
XF 498 CNS
  TGI: 20.9 µM

## CC1=C2CC(C)(C)/C=C\C(=O)/C(C)=C\C3=C[C@H](C)C[C@]3(O2)C1=O
MDA-N
  TGI: 9.98 µM

## O=C/C1=C/C2=Cc3ccccc3C=C(/C=C(/C=O)C1)C2
DLD-1 colon
  TGI: > 100 µM
DMS 114 small cell lung
  TGI: > 100 µM
DMS 273 small cell lung
  TGI: > 100 µM
KM20L2 colon
  TGI: > 100 µM
SNB-78 CNS
  TGI: > 100 µM
XF 498 CNS
  TGI: > 100 µM

## CCC(=O)N1C(=O)OCC1C(C)C (stereo not drawn)
DLD-1 colon
  TGI: > 100 µM
DMS 114 small cell lung
  TGI: > 100 µM
DMS 273 small cell lung
  TGI: > 100 µM
HOP-18 NSCLC
  TGI: > 100 µM
KM20L2 colon
  TGI: > 100 µM
RXF-631 renal
  TGI: > 100 µM
SNB-78 CNS
  TGI: > 100 µM
XF 498 CNS
  TGI: > 100 µM

## O=C1C(=O)N(c2ccc(Cl)cc2)C(=O)C(=O)C1c1nc2ccccc2o1
DLD-1 colon
  TGI: > 100 µM
DMS 114 small cell lung
  TGI: > 100 µM
DMS 273 small cell lung
  TGI: > 100 µM
KM20L2 colon
  TGI: > 100 µM
RXF-631 renal
  TGI: > 100 µM
SNB-78 CNS
  TGI: > 100 µM
XF 498 CNS
  TGI: > 100 µM

## O=S(=O)([O-])c1ccc(N=Cc2ccccc2[O-])cc1.O=S(=O)([O-])c1ccc(N=Cc2ccccc2[O-])cc1.[Co+2]
DLD-1 colon
  GI50: 51.1 µM
  TGI: > 100 µM
DMS 114 small cell lung
  GI50: 28.3 µM
  TGI: > 100 µM
HOP-18 NSCLC
  GI50: 85.5 µM
  TGI: > 100 µM
SNB-78 CNS
  GI50: > 100 µM
  TGI: > 100 µM
XF 498 CNS
  GI50: 53.5 µM
  TGI: > 100 µM

## COc1cc(/C=C(\NC(=O)c2ccccc2)c2nc3ccc4c(c3[nH]2)C(=O)c2ccccc2C4=O)cc(OC)c1OC
DLD-1 colon
  TGI: > 100 µM
DMS 114 small cell lung
  TGI: > 100 µM
DMS 273 small cell lung
  TGI: > 100 µM
KM20L2 colon
  TGI: > 100 µM
RXF-631 renal
  TGI: > 100 µM
SNB-78 CNS
  TGI: > 100 µM
XF 498 CNS
  TGI: > 100 µM

## CN1CN(C2OC(CO)C(O)C2O)c2nc(N)[nH]c(=O)c21 (stereo not drawn)
DLD-1 colon
  TGI: > 100 µM
DMS 114 small cell lung
  TGI: > 100 µM
DMS 273 small cell lung
  TGI: > 100 µM
HOP-18 NSCLC
  TGI: > 100 µM
KM20L2 colon
  TGI: > 100 µM
SNB-78 CNS
  TGI: > 100 µM
XF 498 CNS
  TGI: > 100 µM

## C=C1CC2(CC(c3ccccc3Cl)OC(c3ccccc3Cl)C2)OC1=O (stereo not drawn)
MDA-N
  TGI: 3.86 µM
